# Values quoted from earlier work in patent US6365170B1, “Use of a disinfectant for living fish” (USF Filtration & Separations Spa-Div. Perdomini, priority 1998, dated 2002).
# System: salmon louse (Lepeophtheirus Salmonis)
# Conditions: hydrogen peroxide around 1.5 g/l for longer than 20 minutes
compound,measurement,value
OO [hydrogen peroxide],success percentage,~100%
